Experimental findings from US10577373B2, “TYK2 inhibitors and uses thereof” (Nimbus Lakshmi, Inc., priority 2017, dated 2020) are described below.

Molecules are shown by their SMILES.

Test [1] deals with GM-CSF induced STAT5 phosphorylation mediated by the JAK2/JAK2 homdimeric complex. Briefly: GM-CSF Induced pSTAT5 in Human PBMC. Particulars: Homo sapiens, PBMC, 20 min, read-out: PBMC_GMCSF_pSTAT5 IC50, human PBMC; GM-CSF 5 ng/mL for 20 minutes; pSTAT5.
Source text: Human PBMC are isolated from buffy coat and are stored frozen for assays as needed.
Test [2] concerns IL-12 induced STAT4 phophorylation mediated by Tyk2/JAK2 (heterodimeric complex). Briefly: IL-12 Induced pSTAT4 in Human PBMC. Particulars: 1.7 ng/mL IL-12. In kind it is cell-based. The source says:
The IL-12 Induced pSTAT4 assay evaluates the inhibition of IL-12 induced STAT4 phophorylation mediated by Tyk2/JAK2 (heterodimeric complex).

Regarding `CNc1cc(Nc2cccn(-c3cccc(C(C)(C)O)n3)c2=O)nc2c(C(=O)NC3CCC3)cnn12` [I-156], the IC50 is above 12.5 µM in test [1] and below 0.1 µM in test [2].
For `CNc1cc(Nc2cccn(-c3ccon3)c2=O)nc2c(C(=O)NC3CCC3)cnn12` [I-158] the same measures were above 50 µM and below 0.1 µM.
For `CNc1cc(Nc2cccn(-c3cc(C)on3)c2=O)nc2c(C(=O)NC3CCC3)cnn12` [I-160], the values for the IC50 in test [1] and in test [2] were above 12.5 µM and below 0.1 µM, respectively.
`CNc1cc(Nc2cccn(-c3cc(C)on3)c2=O)nc2c(C(=O)N[C@H]3C[C@H]3F)cnn12` [I-161]: the IC50 in test [1] is above 12.5 µM; in test [2], below 0.1 µM.
In the case of `CNc1cc(Nc2cccn(-c3cc(C)on3)c2=O)nc2c(C(=O)NC3CC3)cnn12` [I-162], the IC50 in test [1] was above 2.5 µM; in test [2], below 0.1 µM.
Consider `CNc1cc(Nc2cccn(-c3ccc(N4CCOCC4)cn3)c2=O)nc2c(C(=O)NC3CCC3)cnn12` [I-163], for which the IC50 is above 2.5 µM in test [1] and below 0.1 µM in test [2].
`CNc1cc(Nc2cc(Cl)cn(-c3ccc(C)nn3)c2=O)nc2c(C(=O)N[C@H]3C[C@H]3F)cnn12` [I-164]: the IC50 is above 50 µM in test [1] and below 0.1 µM in test [2].
`CNc1cc(Nc2cccn(-c3ccc(C4CC4)nn3)c2=O)nc2c(C(=O)N[C@H]3C[C@H]3F)cnn12` [I-165]: the IC50 in test [1] is above 2.5 µM; in test [2], below 0.1 µM.
Turning to `CNc1cc(Nc2cccnc2OC2CCC2)nc2c(C(=O)N[C@H]3C[C@H]3F)cnn12` [I-170], the IC50 is above 50 µM in test [1] and below 0.1 µM in test [2].
With `[2H]C([2H])([2H])Oc1ncccc1Nc1cc(NC)n2ncc(C(=O)NC3CCC3)c2n1` [I-176], the IC50 in test [1] is above 50 µM; in test [2] it was below 0.1 µM.
For `[2H]C([2H])([2H])Oc1ncccc1Nc1cc(NC)n2ncc(C(=O)N[C@H]3C[C@H]3F)c2n1` [I-177], the IC50 in test [1] was above 12.5 µM; in test [2], below 0.1 µM.
Consider `CNc1cc(Nc2cccn([C@H]3CC[C@@H](N4CCOCC4)CC3)c2=O)nc2c(C(=O)NC3CCC3)cnn12` [I-182], for which the 50% inhibitory concentration (IC50) in test [1] was above 2.5 µM; in test [2] it was below 0.1 µM.
For the molecule `CNc1cc(-c2c[nH]c3c(C4CCOCC4)cc(Cl)cc23)nc2c(C(N)=O)cnn12` [I-190], the results for the 50% inhibitory concentration (IC50) in test [1] and in test [2] were above 12.5 µM and below 0.1 µM, respectively.
Regarding `CNc1cc(Nc2cccn(C3CCN(CC(F)F)CC3)c2=O)nc2c(C(=O)NC3CCC3)cnn12` [I-192], the figures for the IC50 in test [1] and in test [2] were above 12.5 µM and below 0.1 µM, respectively.
For `CNc1cc(Nc2cc(F)cn(-c3ccccn3)c2=O)nc2c(C(=O)NC3CCC3)cnn12` [I-193] the same measures were above 12.5 µM and below 0.1 µM.
As for `CNc1cc(Nc2cc(F)cn(-c3ccccn3)c2=O)nc2c(C(=O)N[C@H]3C[C@H]3F)cnn12` [I-194], the IC50 in test [1] is above 12.5 µM; in test [2] it was below 0.1 µM.
Regarding `CNc1cc(Nc2cc(F)cn(-c3ccc(C)nn3)c2=O)nc2c(C(=O)N[C@H]3C[C@H]3F)cnn12` [I-198], the IC50 was above 2.5 µM in test [1] and below 0.1 µM in test [2].
For the molecule `CNc1cc(Nc2cc(F)cnc2OC(C)C)nc2c(C(=O)N[C@H]3C[C@H]3F)cnn12` [I-211], the values for the IC50 in test [1] and in test [2] were above 50 µM and 0.1 to 0.5 µM, respectively.
Consider `CNc1cc(Nc2cccnc2OC2CC2)nc2c(C(=O)NC3CC3)cnn12` [I-215, 5-((2-cyclopropoxypyridin-3-yl)amino)-N-cyclopropyl-7-(methylamino) pyrazolo[1,5-a]pyrimidine-3-carboxamide], for which the figures for the IC50 in test [1] and in test [2] were above 50 µM and below 0.1 µM, respectively.
For `CNc1cc(Nc2cccnc2OC2CC2)nc2c(C(=O)NC3CCC3)cnn12` [I-216] the same measures were above 12.5 µM and below 0.1 µM.
For `CNc1cc(Nc2cccnc2OC2CC2)nc2c(C(=O)N[C@H]3C[C@H]3F)cnn12` [I-217], the IC50 in test [1] was above 50 µM; in test [2], below 0.1 µM.
On to `CNc1cc(Nc2cccnc2OCCOC)nc2c(C(=O)NC3CCC3)cnn12` [I-219], for which the IC50 in test [1] is above 12.5 µM; in test [2] it was below 0.1 µM.
For `CNc1cc(Nc2cccnc2OCCOC)nc2c(C(=O)N[C@H]3C[C@H]3F)cnn12` [I-220] the same measures were above 12.5 µM and below 0.1 µM.
For `CNc1cc(-c2cn(C(C)C)c3ncccc23)nc2c(C(N)=O)cnn12` [I-222, 5-(1-isopropyl-1H-pyrrolo[2,3-b]pyridin-3-yl)-7-(methylamino)pyrazolo[1,5-a]pyrimidine-3-carboxamide] the same measures were above 2.5 µM and below 0.1 µM.
Consider `CNc1cc(-c2cn(C(C)C)c3ncccc23)nc2c(C(=O)NC3CC3)cnn12` [I-223], for which the values for the IC50 in test [1] and in test [2] were above 12.5 µM and below 0.1 µM, respectively.
For `CNc1cc(-c2cn(C(C)C)c3ncccc23)nc2c(C(=O)NC3CCC3)cnn12` [I-224], the results for the IC50 in test [1] and in test [2] were above 50 µM and below 0.1 µM, respectively.
`CNc1cc(Nc2cc(C)cn(-c3cnn(C)c3)c2=O)nc2c(C(=O)NC3CC3)cnn12` [I-233]: the half-inhibitory concentration (IC50) was above 50 µM in test [1] and below 0.1 µM in test [2].
As for `CNc1cc(Nc2cc(C)cn(-c3cnn(C)c3)c2=O)nc2c(C(=O)NC3CCC3)cnn12` [I-234], the results for the IC50 in test [1] and in test [2] were above 2.5 µM and below 0.1 µM, respectively.
With `CNc1cc(Nc2cc(C)cn(-c3cnn(C)c3)c2=O)nc2c(C(=O)N[C@H]3C[C@H]3F)cnn12` [I-235], the IC50 in test [1] is above 2.5 µM; in test [2], below 0.1 µM.
For `CNc1cc(Nc2cccc(N3CCOC3=O)n2)nc2c(C(=O)N[C@H]3C[C@H]3F)cnn12` [I-236] the same measures were above 2.5 µM and below 0.1 µM.
For `CNc1cc(Nc2cccn(-c3ccc(F)cn3)c2=O)nc2c(C(=O)NC3CCC3)cnn12` [I-238] the same measures were above 50 µM and below 0.1 µM.
Regarding `CNc1cc(Nc2cccn(-c3ccc(C4CC4)nn3)c2=O)nc2c(C(=O)NC3CCC3)cnn12` [I-240], the IC50 in test [1] was above 2.5 µM; in test [2], below 0.1 µM.
For `CNc1cc(Nc2cccn(-c3nccs3)c2=O)nc2c(C(=O)N[C@H]3C[C@H]3F)cnn12` [I-243] the same measures were above 2.5 µM and below 0.1 µM.
Regarding `CNc1cc(Nc2cccc(N3CCCC3=O)n2)nc2c(C(=O)N[C@H]3C[C@H]3F)cnn12` [I-244], the concentration for half-maximal inhibition (IC50) in test [1] is above 12.5 µM; in test [2], below 0.1 µM.
With `CNc1cc(Nc2cccn(-c3ccc(F)cc3)c2=O)nc2c(C(=O)NC3CCC3)cnn12` [I-246], the IC50 in test [1] is above 2.5 µM; in test [2], below 0.1 µM.
With `CNc1cc(Nc2cc(C)cn(-c3ccn(C)n3)c2=O)nc2c(C(=O)N[C@H]3C[C@H]3F)cnn12` [I-250], the IC50 in test [1] is above 12.5 µM; in test [2], below 0.1 µM.
Take `CNc1cc(-c2cn(C(C)C)c3ncc(C)cc23)nc2c(C(N)=O)cnn12` [I-255]: the figures for the IC50 in test [1] and in test [2] were above 50 µM and below 0.1 µM, respectively.
Regarding `[2H]C([2H])([2H])Oc1ncc(C)cc1Nc1cc(NC)n2ncc(C(=O)NC3CC3)c2n1` [I-258], the IC50 in test [1] was above 50 µM; in test [2], below 0.1 µM.
In the case of `[2H]C([2H])([2H])Oc1ncc(C)cc1Nc1cc(NC)n2ncc(C(=O)N[C@H]3C[C@H]3F)c2n1` [I-259], the values for the IC50 in test [1] and in test [2] were above 12.5 µM and below 0.1 µM, respectively.

One may read the IC50 as the point on the concentration scale where inhibition reaches its midpoint.
